Literature values in US20260297035A1, “PROTEIN KINASE INHIBITORS AND USES THEREOF” (DELiver Therapeutics, Inc., priority 2023, published 2026).

Experiments:
BTK = conditions: role: cofactor; peptide substrate Tyr 01; read-out: ATP Km app; cited from earlier work
ABL2 (Arg) = conditions: role: cofactor; peptide substrate Tyr 02; read-out: ATP Km app; cited from earlier work
RET-V804L = conditions: role: cofactor; peptide substrate Tyr 02; read-out: ATP Km app; cited from earlier work
ITK = conditions: role: cofactor; peptide substrate Tyr 01; read-out: ATP Km app; cited from earlier work
LCK = conditions: role: cofactor; peptide substrate Tyr 02; read-out: ATP Km app; cited from earlier work
SRC = conditions: role: cofactor; peptide substrate Tyr 02; read-out: ATP Km app; cited from earlier work
TXK = conditions: role: cofactor; peptide substrate Tyr 06; read-out: ATP Km app; cited from earlier work
EPHA2 = conditions: role: cofactor; peptide substrate Tyr 01; read-out: ATP Km app; cited from earlier work
BMX = conditions: role: cofactor; peptide substrate Tyr 01; read-out: ATP Km app; cited from earlier work
AURKA (Aurora A) = conditions: role: cofactor; peptide substrate Ser/Thr 01; read-out: ATP Km app; cited from earlier work
TYK2 = conditions: role: cofactor; peptide substrate Tyr 03; read-out: ATP Km app; cited from earlier work
EPHB2 = conditions: role: cofactor; peptide substrate Tyr 02; read-out: ATP Km app; cited from earlier work
EPHA1 = conditions: role: cofactor; peptide substrate Tyr 02; read-out: ATP Km app; cited from earlier work
EPHB1 = conditions: role: cofactor; peptide substrate Tyr 02; read-out: ATP Km app; cited from earlier work
TNK1 = conditions: role: cofactor; peptide substrate Ser/Thr 13; read-out: ATP Km app; cited from earlier work
ABL1 T315I = molecular target: T1, ABL1 T315I (Homo sapiens, UniProt P00519, T315I); conditions: role: cofactor; peptide substrate Tyr 02; read-out: ATP Km app; cited from earlier work
T1 construct: The ABL1 variant polypeptides utilized contained the same polypeptide as the “isoahABL1(wt)” polypeptide except that each contained one corresponding amino acid substitution

ROS1 = conditions: role: cofactor; peptide substrate Tyr 01; read-out: ATP Km app; cited from earlier work
ABL1 F317I = conditions: role: cofactor; peptide substrate Tyr 02; read-out: ATP Km app; cited from earlier work
RET-A883F = conditions: role: cofactor; peptide substrate Tyr 04; read-out: ATP Km app; cited from earlier work
EPHA8 = conditions: role: cofactor; peptide substrate Tyr 02; read-out: ATP Km app; cited from earlier work
ABL1 G250E = conditions: role: cofactor; peptide substrate Tyr 02; read-out: ATP Km app; cited from earlier work
ABL1(wt) = ABL1(wt) (Homo sapiens, UniProt P00519); conditions: role: cofactor; peptide substrate Tyr 02; read-out: ATP Km app; cited from earlier work
RET-Y791F = conditions: role: cofactor; peptide substrate Tyr 02; read-out: ATP Km app; cited from earlier work
JAK2 = conditions: role: cofactor; peptide substrate Tyr 06; read-out: ATP Km app; cited from earlier work
ABL1 Y253F = conditions: role: cofactor; peptide substrate Tyr 02; read-out: ATP Km app; cited from earlier work
NTRK3 (TRKC) = conditions: role: cofactor; peptide substrate Tyr 01; read-out: ATP Km app; cited from earlier work
EPHA5 = conditions: role: cofactor; peptide substrate Tyr 01; read-out: ATP Km app; cited from earlier work
JAK3 = conditions: role: cofactor; peptide substrate Tyr 06; read-out: ATP Km app; cited from earlier work
ABL1 F317L = conditions: role: cofactor; peptide substrate Tyr 02; read-out: ATP Km app; cited from earlier work
JAK1 = conditions: role: cofactor; peptide substrate Tyr 06; read-out: ATP Km app; cited from earlier work
AURKC (Aurora C) = conditions: role: cofactor; peptide substrate Ser/Thr 19; read-out: ATP Km app; cited from earlier work
AURKB (Aurora B) = conditions: role: cofactor; peptide substrate Ser/Thr 01; read-out: ATP Km app; cited from earlier work
NTRK2 (TRKB) = conditions: role: cofactor; peptide substrate Tyr 01; read-out: ATP Km app; cited from earlier work
ABL1 E255K = conditions: role: cofactor; peptide substrate Tyr 02; read-out: ATP Km app; cited from earlier work
NTRK1 (TRKA) = conditions: role: cofactor; peptide substrate Tyr 01; read-out: ATP Km app; cited from earlier work
SRC-N1 = conditions: role: cofactor; peptide substrate Tyr 02; read-out: ATP Km app; cited from earlier work
RET = conditions: role: cofactor; peptide substrate Tyr 02; read-out: ATP Km app; cited from earlier work
PTK2B (FAK2) = conditions: role: cofactor; peptide substrate Tyr 01; read-out: ATP Km app; cited from earlier work
RET-S891A = conditions: role: cofactor; peptide substrate Tyr 06; read-out: ATP Km app; cited from earlier work
RET-V804E = conditions: role: cofactor; peptide substrate Tyr 04; read-out: ATP Km app; cited from earlier work

Compound: Nc1ncnc2c1ncn2[C@@H]1O[C@H](COP(=O)(O)OP(=O)(O)OP(=O)(O)O)[C@@H](O)[C@H]1O [ATP]
- Km (BTK): 36 µM
- Km (ABL2 (Arg)): 30 µM
- Km (RET-V804L): 5 µM
- Km (ITK): 5.6 µM
- Km (LCK): 45 µM
- Km (SRC): 50 µM
- Km (TXK): 96 µM
- Km (EPHA2): 65.4 µM
- Km (BMX): 107 µM
- Km (AURKA (Aurora A)): 10 µM
- Km (TYK2): 23 µM
- Km (EPHB2): 66 µM
- Km (EPHA1): 18.5 µM
- Km (EPHB1): 61.4 µM
- Km (TNK1): 237 µM
- Km (ABL1 T315I): 2.8 µM
- Km (ROS1): 61.4 µM
- Km (ABL1 F317I): 15 µM
- Km (RET-A883F): 10 µM
- Km (EPHA8): 123 µM
- Km (ABL1 G250E): 5.4 µM
- Km (ABL1(wt)): 12 µM
- Km (RET-Y791F): 12 µM
- Km (JAK2): 31 µM
- Km (ABL1 Y253F): 11.8 µM
- Km (NTRK3 (TRKC)): 54 µM
- Km (EPHA5): 129 µM
- Km (JAK3): 14 µM
- Km (ABL1 F317L): 14 µM
- Km (JAK1): 87 µM
- Km (AURKC (Aurora C)): 26 µM
- Km (AURKB (Aurora B)): 81 µM
- Km (NTRK2 (TRKB)): 22 µM
- Km (ABL1 E255K): 4.2 µM
- Km (NTRK1 (TRKA)): 425 µM
- Km (SRC-N1): 50 µM
- Km (RET): 11 µM
- Km (PTK2B (FAK2)): 5 µM
- Km (RET-S891A): 8 µM
- Km (RET-V804E): 50 µM
